This note sets out measurements from patent publication US8389573B2, “Glycyrrhetinic acid derivatives” (Wellington Laboratories Inc., priority 2006, dated 2013).

Holding throughout (format): cell-based
For test [1], the system named is Panc28 pancreatic cancer cells. Briefly: Growth inhibition in Panc28 pancreatic cancer cells. Particulars: Pancreatic cancer cell.
Test [2] deals with SW480 colon cancer cells. Briefly: Cell proliferation assay in SW480 cells. The note with it: Homo sapiens, read-out: IC50, growth inhibition / cell proliferation. How it is done:
Human colon carcinoma cell lines SW480 and HT29 were provided by Dr. Stan Hamilton, M.D. Anderson Cancer Center (Houston, Tex.); SW-480 and HT-29 cells were maintained in Dulbecco's modified Eagle's medium nutrient mixture with Ham's F-12 (DMEM/Ham's F-12; Sigma-Aldrich, St. Louis, Mo.) with phenol red supplemented with 0.22% sodium bicarbonate, 0.011% sodium pyruvate, and 5% fetal bovine serum and 10 ml/l 100× antibiotic antimycotic solution (Sigma-Aldrich). Cells were maintained at 37° C. in the presence of 5% CO2.
SW480 and HT 29 Cells (2×10^4) were plated in 12-well plates, and media were replaced the next day with DMEM/Ham's F-12 media containing 2.5% charcoal-stripped FBS and either vehicle (DMSO) or the indicated ligand and dissolved in DMSO. Fresh media and compounds were added every 48 h. Cells were counted at the indicated times using a Coulter Z1 cell counter. Each experiment was done in triplicate, and results are expressed as means±S.E. for each determination

The target of test [3] is T1, PPARγ-coactivator interactions (Homo sapiens, UniProt P37231).
T1 construct: expressed in transfected cells; host or cells: SW480 cells, transient transfection (LipofectAMINE)
T1 sequence (P37231 238-503 limits assumed): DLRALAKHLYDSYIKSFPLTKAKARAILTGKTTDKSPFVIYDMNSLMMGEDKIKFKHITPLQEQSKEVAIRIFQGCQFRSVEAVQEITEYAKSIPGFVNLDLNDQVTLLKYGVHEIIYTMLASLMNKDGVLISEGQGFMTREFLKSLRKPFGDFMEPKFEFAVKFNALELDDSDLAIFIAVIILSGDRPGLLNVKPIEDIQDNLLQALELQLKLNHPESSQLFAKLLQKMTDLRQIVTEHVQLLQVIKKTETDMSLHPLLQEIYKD
The test is described as follows: Mammalian two-hybrid assay (VP-PPARγ, GAL4-coactivator) in SW480 cells. How it is done: SW480 and HT29 cell lines were plated in 12-well plates at 1×10^5 cells/well in DMEM/F-12 media supplemented with 2.5% charcoal-stripped fetal bovine serum. After growth for 16 h, various amounts of DNA, i.e. Gal4Luc (0.4 μg), β-gal (0.04 μg), VP-PPARγ (0.04 μg), pMSRC1 (0.04 μg), pMSRC2 (0.04 μg), pMSRC3 (0.04 μg), pMPGC-1 (0.04 μg), pMDRIP205 (0.04 μg), and pMCARM-1 (0.04 μg) were transfected by LipofectAMINE (Invitrogen) according to the manufacturer's protocol. After 5 h of transfection, the transfection mix was replaced with complete media containing either vehicle (DMSO) or the indicated ligand for 20-22 h. Cells were then lysed with […] of 1× reporter lysis buffer, and 30 μl of cell extract was used for luciferase and β-galactosidase assays. Lumicount was used to quantitate luciferase and β-galactosidase activities, and the luciferase activities were normalized to β-galactosidase activity.

In test [4] the test system is p21 promoter. The test is described as follows: p21 promoter construct luciferase assay in LNCaP cells. The note with it: 1-5 μM.
In test [5] the test system is LNCaP human prostate carcinoma cells. The test is described as follows: Cell proliferation assay in LNCaP cells. The note with it: 96 hr, read-out: IC50, inhibition of LNCaP cell growth. How it is done: Cell lines: LNCaP human prostate carcinoma cells were obtained from American Type Culture Collection (Manassas, Va.). Fetal bovine serum was obtained from JRH Biosciences, Lenexa, Kans. LNCaP cells were maintained in RPMI 1640 (Sigma Chemical, St. Louis, Mo.) supplemented with 0.22% sodium bicarbonate, 0.011% sodium pyruvate, 0.45% glucose, 0.24% HEPES, 10% FBS, and 10 mL/L of 100× antibiotic/antimycotic solution (Sigma). Cells were maintained at 37° C. in the presence of 5% CO2.
Cell Proliferation and DNA Fragmentation Assays: LNCaP prostate cancer cells (2×10^4 per well) were added to 12-well plates and allowed to attach for 24 hr. The medium was then changed to DMEM/Ham's F-12 media containing 2.5% charcoal-stripped FBS, and either vehicle (DMSO) or the indicated C-DIMs were added. Fresh medium and indicated compounds were added every 48 hr, and cells were then trypsinized and counted after 2, 4, and 6 days using a Coulter Z1 cell counter (Beckman Coulter, Fullerton, Calif.). Each experiment was done in triplicate, and results are expressed as means±S.E. for each set of three experiments. The DNA fragmentation assay was performed using a BioVision Apoptotic DNA ladder extraction kit (BioVision, Mountain View, Calif.) according to the manufacturer's protocol.

Test [6] has as its system PSA promoter. The test is described as follows: PSA-luc promoter luciferase assay in LNCaP cells. Particulars: basal. An excerpt:
Transfections: The Gal4 reporter construct containing 5× Gal4 response elements (pGal4) was kindly provided by Dr. Marty Mayo (University of North Carolina, Chapel Hill, N.C.). The Gal4 DBD-PPARγ construct was a gift of Dr. Jennifer L. Oberfield (Glaxo Wellcome Research and Development, Research Triangle Park, N.C.). The PPRE-luc construct contains three tandem PPREs with a minimal TATA sequence linked to the luciferase gene in pGL2. The AR-luc construct containing the −5400 to +580 region of the androgen receptor promoter was provided by Dr. Donald J. Tindall (Mayo Clinic, Rochester, Minn.), and the PSA-luc construct containing the 5.8-kilobase region of the PSA promoter was provided by Dr. Hong-Wu Cheng (University of California, Davis, Calif.). LNCaP cells (1×10^5) were seeded in 12-well plates in DMEM/Ham's F-12 media supplemented with 2.5% charcoal-stripped FBS and grown overnight. Transient transfections were performed using Lipofectamine reagent (Invitrogen) according to the protocol provided by the manufacturer. Transfection studies were performed using 0.4 μg of Gal4Luc, 0.04 μg of β-galactosidase, 0.04 μg of Gal4 DBD-PPARγ, 0.4 μg of AR-luc, and 0.3 μg of PSA-luc. […] A Lumicount luminometer (PerkinElmer Life and Analytical Sciences) was used to quantify luciferase and β-galactosidase activities, and the luciferase activities were normalized to β-galactosidase activity.

Test [7] relates to PPARγ. The test is described as follows: PPARγ-GAL4/GAL4-Luc or PPRE3-Luc transactivation in LNCaP cells. An excerpt: Transfections: The Gal4 reporter construct containing 5× Gal4 response elements (pGal4) was kindly provided by Dr. Marty Mayo (University of North Carolina, Chapel Hill, N.C.). The Gal4 DBD-PPARγ construct was a gift of Dr. Jennifer L. Oberfield (Glaxo Wellcome Research and Development, Research Triangle Park, N.C.). The PPRE-luc construct contains three tandem PPREs with a minimal TATA sequence linked to the luciferase gene in pGL2. The AR-luc construct containing the −5400 to +580 region of the androgen receptor promoter was provided by Dr. Donald J. Tindall (Mayo Clinic, Rochester, Minn.), and the PSA-luc construct containing the 5.8-kilobase region of the PSA promoter was provided by Dr. Hong-Wu Cheng (University of California, Davis, Calif.). LNCaP cells (1×10^5) were seeded in 12-well plates in DMEM/Ham's F-12 media supplemented with 2.5% charcoal-stripped FBS and grown overnight. Transient transfections were performed using Lipofectamine reagent (Invitrogen) according to the protocol provided by the manufacturer. Transfection studies were performed using 0.4 μg of Gal4Luc, 0.04 μg of β-galactosidase, 0.04 μg of Gal4 DBD-PPARγ, 0.4 μg of AR-luc, and 0.3 μg of PSA-luc. Six hr after transfection, the transfection mix was replaced with complete media containing either vehicle (DMSO) or the indicated ligand for 20 to 22 hr. Cells were then lysed with 100 μl of 1× reporter lysis buffer, and 30 μl of cell extract was used for luciferase and β-galactosidase assays. A Lumicount luminometer (PerkinElmer Life and Analytical Sciences) was used to quantify luciferase and β-galactosidase activities, and the luciferase activities were normalized to β-galactosidase activity.

Consider `COC(=O)[C@@]1(C)CC[C@]2(C)CC[C@]3(C)C(=CC(=O)[C@@H]4[C@@]5(C)C=C(C#N)C(=O)C(C)(C)[C@@H]5CC[C@]43C)[C@@H]2C1` [β-CDODA-Me, Methyl 2-cyano-3,11-dioxo-18β-oleana-1,12-dien-30-oate], for which the IC50 in test [1] was 1000 to 2500 nM; in test [2] it was 200 to 500 nM; in test [5] it was around 1000 nM. In addition, the “PPARγ interaction with coactivators PGC-1 and SRC-1” value in test [3] was “induced transactivation”. In addition, the “ligand-induced interactions of SRC-2, SRC-3, CARM1, TRAP220 and SMRT with PPARγ” value in test [3] was “not observed”. The “luciferase activity of p21 promoter constructs” value in test [4] was “induces luciferase activity”. For the same molecule, in test [6], the “transactivation of PSA-Luc construct” value was “inhibited transactivation”. In addition, the “induced transactivation after cotreatment with 10 μM T007” value in test [7] is “significant inhibition of induced transactivation”. The “PPARγ-dependent transactivation (luciferase activity)” value in test [7] (1-5 μM) was “significantly induced luciferase activity”.
